Assay results taken from BigSolDB 2.1.

O=[N+]([O-])c1cc[nH]n1
solubility (mole fraction)
Details	283.15 K	288.15 K	293.15 K	298.15 K	303.15 K	308.15 K	313.15 K	318.15 K	323.15 K
in 1,2-dichlorobenzene	0.0009	0.00242	0.00425	0.00666	0.00908	0.0113	0.0139	0.0166	0.0197
in 2-ethylhexyl acetate	0.00998	0.0107	0.0115	0.0122	0.0134	0.0146	0.0166	–	–
in anisole	0.00502	0.00551	0.00623	0.00688	0.0078	0.0092	0.0112	0.0132	0.0156
in benzonitrile	0.0197	0.0223	0.0253	0.0291	0.0342	0.0396	0.0486	0.0631	0.0828
in benzyl alcohol	0.0263	0.0296	0.0333	0.0391	0.0452	0.0508	0.0581	0.0672	0.0753
in mesitylene	0.00129	0.00162	0.002	0.00246	0.00288	0.00335	0.00401	0.00476	0.00578
in n-octanol	0.0127	0.0144	0.0164	0.0192	0.0232	0.0272	0.0315	0.0362	0.0429
